Results from ChEMBL document CHEMBL4819135, “Design, synthesis and anti-HIV evaluation of novel 5-substituted diarylpyrimidine derivatives as potent HIV-1 NNRTIs” (Bioorg Med Chem, 2021).

How the values were obtained:
[1] = test system: Human immunodeficiency virus 1; experiment: Antiviral activity against HIV-1 IIIB harboring RT L100I mutant infected in human MT4 cells assessed as protection against virus-induced cytotoxicity incubated for 5 days by MTT assay; assay type: functional, organism-based; settings: Human immunodeficiency virus 1, IIIB, MT4, 120 h
[2] = test system: Human immunodeficiency virus 1; experiment: Antiviral activity against HIV-1 IIIB harboring RT K103N mutant infected in human MT4 cells assessed as protection against virus-induced cytotoxicity incubated for 5 days by MTT assay; assay type: functional, organism-based; settings: Human immunodeficiency virus 1, IIIB, MT4, 120 h
[3] = test system: Human immunodeficiency virus 1; experiment: Antiviral activity against HIV-1 IIIB harboring RT Y181C mutant infected in human MT4 cells assessed as protection against virus-induced cytotoxicity incubated for 5 days by MTT assay; assay type: functional, organism-based; settings: Human immunodeficiency virus 1, IIIB, MT4, 120 h
[4] = test system: Human immunodeficiency virus 1; experiment: Antiviral activity against HIV-1 RES056 infected in human MT4 cells assessed as protection against virus-induced cytotoxicity incubated for 5 days by MTT assay; assay type: functional, organism-based; settings: Human immunodeficiency virus 1, RES056, MT4, 120 h
[5] = Cytotoxicity against human MT4 cells assessed as reduction in cell viability after 5 days by MTT assay; assay type: cell-based; settings: time 5 day
[6] = test system: Human immunodeficiency virus 1; experiment: Antiviral activity against HIV-1 IIIB harboring RT Y188L mutant infected in human MT4 cells assessed as protection against virus-induced cytotoxicity incubated for 5 days by MTT assay; assay type: functional, organism-based; settings: Human immunodeficiency virus 1, IIIB, MT4, 120 h
[7] = test system: Human immunodeficiency virus 1; experiment: Antiviral activity against HIV-1 IIIB harboring RT E138K mutant infected in human MT4 cells assessed as protection against virus-induced cytotoxicity incubated for 5 days by MTT assay; assay type: functional, organism-based; settings: Human immunodeficiency virus 1, IIIB, MT4, 120 h
[8] = Antiviral activity against HIV-2 ROD infected in human MT4 cells assessed as protection against virus-induced cytotoxicity incubated for 5 days by MTT assay; assay type: functional, cell-based; settings: HIV-2, ISOLATE ROD, MT4, 120 h
[9] = test system: Human immunodeficiency virus 1; experiment: Antiviral activity against HIV-1 IIIB harboring RT F227L/V106A mutant infected in human MT4 cells assessed as protection against virus-induced cytotoxicity incubated for 5 days by MTT assay; assay type: functional, organism-based; settings: Human immunodeficiency virus 1, IIIB, MT4, 120 h
[10] = test system: Human immunodeficiency virus 1; experiment: Antiviral activity against HIV-1 IIIB infected in human MT4 cells assessed as protection against virus-induced cytotoxicity after 5 days by MTT assay; assay type: functional, organism-based; settings: Human immunodeficiency virus 1, IIIB, MT4, 120 h
[11] = test system: Human immunodeficiency virus 1; experiment: Antiviral activity against HIV-1 IIIB; assay type: functional, organism-based; settings: Human immunodeficiency virus 1, IIIB
[12] = test system: Human immunodeficiency virus 1; experiment: Potency index, ratio of Etravirine EC50 to test compound EC50 for antiviral activity against HIV-1 IIIB harboring RT E138K mutant infected in human MT4 cells by MTT assay; assay type: functional
[13] = target: Human immunodeficiency virus type 1 reverse transcriptase (Human immunodeficiency virus 1, UniProt Q72547); experiment: Inhibition of wild type HIV-1 reverse transcriptase assessed as reduction in biotin-dUTP incorporation in presence of template-primer incubated for 60 mins followed by transferring to streptavidin-coated plate and further incubation for 60 mins by ELISA
[14] = test system: Human immunodeficiency virus 1; experiment: Potency index, ratio of Etravirine EC50 to test compound EC50 for antiviral activity against HIV-1 IIIB infected in human MT4 cells by MTT assay; assay type: functional

Row | SMILES | EC50 [1] [nM] | EC50 [2] [nM] | EC50 [3] [nM] | EC50 [4] [nM] | CC50 at 120 h [5] [nM] | EC50 [6] [nM] | EC50 [7] [nM] | EC50 [8] [nM] | EC50 [9] [nM] | EC50 [10] [nM] | EC50 [11] [nM] | Ratio EC50 [12] | IC50 [13] [nM] | Ratio EC50 [14]
1 | Cc1cc(C#N)cc(C)c1Oc1nc(Nc2ccc(C#N)cc2)ncc1-c1ccc(Cl)cc1 | 216 | 19.5 | 250 | 5120 | 72600 | 567 | 72.6 | > 72600 | 902 | 14.4 | – | – | – | –
2 | COc1ccc(-c2cnc(Nc3ccc(C#N)cc3)nc2Oc2c(C)cc(C#N)cc2C)cc1 | 164 | 14.6 | 186 | 3770 | > 279000 | 143 | 38.4 | > 279000 | 278 | 8 | – | – | – | –
3 | Cc1cc(C)cc(-c2cnc(Nc3ccc(C#N)cc3)nc2Oc2c(C)cc(C#N)cc2C)c1 | 421 | 135 | 833 | > 38800 | 39000 | 2230 | 319 | > 38800 | 1110 | 102 | – | – | – | –
4 | Cc1cc(C#N)cc(C)c1Oc1nc(Nc2ccc(C#N)cc2)ncc1-c1ccoc1 | 19.1 | 4.4 | 17.9 | 395 | 4980 | 22.6 | 9.3 | > 4980 | 32.4 | 3.3 | – | – | – | –
5 | Cc1cc(C#N)cc(C)c1Oc1nc(Nc2ccc(C#N)cc2)ncc1-c1ccc2ccccc2c1 | 195 | 35.7 | 356 | > 8460 | 8460 | 849 | 76.9 | > 8460 | 1200 | 16.8 | – | – | – | –
6 | Cc1cc(C#N)cc(C)c1Oc1nc(Nc2ccc(C#N)cc2)ncc1-c1cncnc1 | 38.3 | 5.3 | 32.4 | 316 | > 298000 | 73.4 | 11.8 | > 298000 | 325 | 4.6 | – | – | – | –
7 | Cc1ccc(-c2cnc(Nc3ccc(C#N)cc3)nc2Oc2c(C)cc(C#N)cc2C)cc1 | 138 | 20.3 | 347 | > 10600 | 26100 | 267 | 57.2 | > 26100 | 707 | 11.7 | – | – | – | –
8 | Cc1cc(C#N)cc(C)c1Oc1nc(Nc2ccc(C#N)cc2)nc2ccsc12 | – | – | – | – | – | – | – | – | – | – | 1.6 | – | – | –
9 | Cc1cc(C#N)cc(C)c1Oc1nc(Nc2ccc(C#N)cc2)ncc1-c1ccc(N)cc1 | 20.5 | 3.8 | 41.6 | > 306 | 310 | 33.5 | 10.5 | > 310 | 44.1 | 3.5 | – | – | – | –
10 | Cc1cc(C#N)cc(C)c1Oc1nc(Nc2ccc(C#N)cc2)ncc1-c1ccco1 | 24.8 | 4.7 | 30.4 | 1010 | > 307000 | 37.4 | 9.3 | > 307000 | 75.3 | 3.6 | – | – | – | –
11 | Cc1cc(C#N)cc(C)c1Oc1nc(Nc2ccc(C#N)cc2)ncc1-c1ccsc1 | 53.4 | 4.3 | 57.1 | 1440 | 3920 | 41.8 | 10.7 | > 3920 | 64.8 | 4.1 | – | – | – | –
12 | Cc1cc(C#N)cc(C)c1Oc1nc(Nc2ccc(C#N)cc2)ncc1-c1ccc(C(F)(F)F)cc1 | 246 | 25.4 | 235 | 5460 | 35000 | 598 | 60.3 | > 35000 | 724 | 11.5 | – | – | – | –
13 | Cc1cc(C#N)cc(C)c1Oc1nc(Nc2ccc(C#N)cc2)ncc1-c1ccncc1 | 28.3 | 4.2 | 24.1 | 718 | 28000 | 30.9 | 5.9 | > 28000 | 41.3 | 2.5 | – | 1.4 | 570 | 1.2
14 | Cc1cc(C#N)cc(C)c1Oc1nc(Nc2ccc(C#N)cc2)ncc1-c1cccs1 | 21.1 | 4.8 | 36 | 1150 | 6430 | 57.5 | 12.9 | > 6430 | 269 | 4.9 | – | – | – | –
15 | Cc1cc(C#N)cc(C)c1Oc1nc(Nc2ccc(C#N)cc2)ncc1-c1cccnc1 | 24.2 | 2.7 | 23.5 | 300 | 13500 | 20 | 7.1 | > 13500 | 112 | 2.5 | – | 1.4 | – | 1.2
16 | Cc1cc(C#N)cc(C)c1Oc1nc(Nc2ccc(C#N)cc2)ncc1-c1cccc2ccccc12 | 2670 | 1820 | 21700 | 218000 | > 267000 | 10600 | 5450 | > 267000 | 38400 | 934 | – | – | – | –
17 | Cc1cc(C#N)cc(C)c1Oc1nc(Nc2ccc(C#N)cc2)ncc1-c1ccc(F)cc1 | 159 | 10.1 | 113 | 5000 | 42700 | 102 | 18.5 | > 42700 | 526 | 6.2 | – | – | – | –
18 | Cc1cc(C#N)cc(C)c1Oc1nc(Nc2ccc(C#N)cc2)ncc1-c1ccccc1 | 446 | 63.5 | 576 | 9130 | 31800 | 222 | 122 | > 31800 | 881 | 24.4 | – | – | – | –
19 | Cc1cc(C#N)cc(C)c1Oc1nc(Nc2ccc(C#N)cc2)ncc1-c1ccc(-c2ccccc2)cc1 | 195 | 29.5 | 361 | 8520 | > 253000 | 1320 | 112 | > 253000 | 1220 | 20.5 | – | – | – | –
20 | O=C1Nc2ccc(Cl)cc2[C@@](C#CC2CC2)(C(F)(F)F)O1 [EFAVIRENZ] | 30.8 | – | – | 273 | > 6340 | – | – | – | – | – | – | – | – | –
21 | Cc1cc(C#N)cc(C)c1Oc1nc(Nc2ccc(C#N)cc2)nc(N)c1Br [ETRAVIRINE] | – | – | – | – | > 4590 | – | – | – | – | – | – | – | – | –
22 | Cc1ccnc2c1NC(=O)c1cccnc1N2C1CC1 [NEVIRAPINE] | 589 | 2320 | 3670 | 10700 | > 15000 | 5350 | 115 | – | 4310 | 133 | – | – | – | –
23 | Cc1cn([C@H]2C[C@H](N=[N+]=[N-])[C@@H](CO)O2)c(=O)[nH]c1=O [ZIDOVUDINE] | – | – | – | 20.1 | > 7480 | – | – | – | – | – | – | – | – | –
